Drawing on ChEMBL document CHEMBL3046734, “Molecular insights to explore abietane diterpenes as new LOX inhibitors” (Med Chem Res, 2013), this text covers IC50 for five molecules.

The nature of experiment [1]: Inhibition of Soybean LOX using linoleic acid as substrate incubated for 5 mins prior to substrate addition measured after 10 mins by spectrophotometric analysis. Details: species or system Glycine max.
Experiment [2] is described as follows: Inhibition of LOX (unknown origin). Details: species or system Homo sapiens.

SMILES strings stand for the structures.

In turn, `O=c1cc(-c2ccccc2)oc2cc(O)c(O)c(O)c12` [BAICALEIN] returned an IC50 in experiment [1] of 22.1 µM. With `NC(=O)n1c(O)c(C(=O)c2cccs2)c2cc(Cl)ccc21` [TANIDAP SODIUM], in experiment [1], the IC50 came out at 41.6 µM. On the same count and under the same terms, in the case of `COc1c(C(C)C)cc2c(c1O)C=C1C=CC(=O)C(C)(C)C1CC2=O` (stereo not given) [TAXAMAIRIN F] it was 73 µM; in that of `COc1c(C(C)C)cc2c(c1OC)[C@@]13CCC(=O)C(C)(C)[C@@H]1[C@H](OC3=O)C2=O` [TAXUSABIETANE C], 69 µM.

Regarding `COc1c(C(C)C)cc2c(c1O)[C@@]1(C)CCC(=O)C(C)(C)[C@@H]1CC2=O` [TAXUSABIETANE A], the IC50 in experiment [2] is 57 µM.
